According to patent publication US20240294541A1, “COMPOUNDS CONSTITUTING C20-MODIFIED SALINOMYCIN DERIVATIVES, A METHOD FOR OBTAINING THE SAME, A COMPOSITION CONTAINING THE SAME AND A USE OF SAID COMPOUNDS” (FILECLO SPOLKA Z OGRANICZONA ODPOWIEDZIALNOSCIA, priority 2021, published 2024):
pIC50: −log10 of the molar value. Like-named read-outs stand apart in the source and are kept apart here.

What was measured:
Format in all cases: cell-based
A375 (human melanoma) = assay: In vitro cytotoxicity, SRB assay, A375; conditions: for pIC50: A-375, 72 h with compound, SRB, n/a = non-active compound, read-out: A375 IC50; for A375 SI: selectivity coefficient vs normal BALB/3T3 cells
[1] = system: BALB/3T3 (normal mouse fibroblasts); assay: In vitro cytotoxicity, SRB assay, normal BALB/3T3 fibroblasts; conditions: Mus musculus, BALB/3T3; normal cells; 72 h with compound, SRB; n/a = non-active compound; read-out: BALB/3T3 IC50
Hs294T (human melanoma) = assay: cells; conditions: for pIC50: Homo sapiens, Hs 294T, 72 h with compound, SRB, n/a = non-active compound, read-out: Hs294T IC50; for Hs294T SI: selectivity coefficient vs normal BALB/3T3 cells
[2] = system: A2780 (human ovarian cancer); assay: In vitro cytotoxicity, SRB assay, A2780; conditions: for pIC50: A2780, 72 h with compound, SRB, n/a = non-active compound, read-out: A2780 IC50; for A2780 SI: selectivity coefficient vs normal BALB/3T3 cells
[3] = system: KG-1 (human acute myeloid leukaemia); assay: In vitro cytotoxicity, MTT assay, KG-1; conditions: for pIC50: Homo sapiens, 72 h with compound, MTT, n/a = non-active compound; for KG-1 SI: selectivity coefficient vs normal BALB/3T3 cells
[4] = system: PLC/PRF/5 (human liver cancer); assay: cells; conditions: for pIC50: Homo sapiens, PLC-PRF-5, 72 h with compound, SRB, n/a = non-active compound, read-out: PLC/PRF/5 IC50; for PLC/PRF/5 SI: selectivity coefficient vs normal BALB/3T3 cells
[5] = system: NCI-H23 (human lung cancer); assay: In vitro cytotoxicity, SRB assay, NCI-H23; conditions: for pIC50: NCI-H23, 72 h with compound, SRB, n/a = non-active compound, read-out: NCI-H23 IC50; for NCI-H23 SI: selectivity coefficient vs normal BALB/3T3 cells
[6] = system: A2780Cis (cisplatin-resistant human ovarian cancer); assay: In vitro cytotoxicity, SRB assay, A2780Cis; conditions: for IC50: Homo sapiens, A2780cis, 72 h, read-out: A2780Cis IC50 (nM)
[7] = system: MIA PaCa-2 (human pancreatic cancer); assay: cells; conditions: for pIC50: Homo sapiens, MIA PaCa-2, 72 h with compound, SRB, n/a = non-active compound, read-out: MIA PaCa-2 IC50; for MIA PaCa-2 SI: selectivity coefficient vs normal BALB/3T3 cells
[8] = system: SNU-16 (human gastric cancer); assay: cells; conditions: for pIC50: Homo sapiens, SNU-16, 72 h with compound, MTT, n/a = non-active compound, read-out: SNU-16 IC50; for SNU-16 SI: selectivity coefficient vs normal BALB/3T3 cells
[9] = system: PFSK-1 (malignant primitive neuroectodermal tumour); assay: In vitro cytotoxicity, SRB assay, PFSK-1; conditions: for pIC50: PFSK-1, 72 h with compound, SRB, n/a = non-active compound, read-out: PFSK-1 IC50; for PFSK-1 SI: selectivity coefficient vs normal BALB/3T3 cells

SMILES	pIC50 (A375 (human melanoma); Homo sapiens)	A375 SI (A375 (human melanoma))	pIC50 [1]	pIC50 (Hs294T (human melanoma))	Hs294T SI (Hs294T (human melanoma))	pIC50 ([2]; Homo sapiens)	A2780 SI [2]	pIC50 [3]	KG-1 SI [3]	pIC50 [4]	PLC/PRF/5 SI [4]	NCI-H23 SI [5]	A2780Cis RI [6]	A2780Cis SI [6]	IC50 [6]	pIC50 [7]	MIA PaCa-2 SI [7]	pIC50 [8]	SNU-16 SI [8]	PFSK-1 SI [9]	further results
CCCNC(=S)N[C@@H]1C=C[C@]2(O[C@H]([C@@H](CC)C(=O)[C@@H](C)[C@@H](O)[C@H](C)[C@@H]3O[C@@H]([C@@H](CC)C(=O)O)CC[C@@H]3C)[C@@H](C)C[C@H]2C)O[C@@]12CC[C@@](C)([C@H]1CC[C@](O)(CC)[C@H](C)O1)O2 [FLC-00349-1]	6.95	0.6	7.17	6.97	0.6	8.35	15.0	7.61	2.7	7.62	2.8	0.9	1.0	14.8	4.56 nM	7.18	1.0	7.68	3.3	2.4	pIC50 ([5]; Homo sapiens): 7.12; pIC50 ([9]; Homo sapiens): 7.56
CC[C@@H](C(=O)[C@@H](C)[C@@H](O)[C@H](C)[C@@H]1O[C@@H]([C@@H](CC)C(=O)O)CC[C@@H]1C)[C@H]1O[C@]2(C=C[C@@H](NC(=S)Nc3cc(Cl)cc(Cl)c3)[C@]3(CC[C@@](C)([C@H]4CC[C@](O)(CC)[C@H](C)O4)O3)O2)[C@H](C)C[C@@H]1C [FLC-00380-1]		1.0	6.72	6.75	1.1		85.7	8.19	29.6	7.70	9.6	36.6	0.2	483.3	0.4 nM	7.32	4.0	8.18	28.9	31.6	IC50 (A375 (human melanoma); Homo sapiens, A-375, 72 h, read-out: A375 IC50 (nM)): 195 nM; IC50 ([2]; Homo sapiens, A2780, 72 h, read-out: A2780 IC50 (nM)): 2.23 nM; IC50 ([5]; Homo sapiens, NCI-H23, 72 h, read-out: NCI-H23 IC50 (nM)): 5.22 nM; IC50 ([9]; Homo sapiens, PFSK-1, 72 h, read-out: PFSK-1 IC50 (nM)): 6.05 nM
CC[C@@H](C(=O)[C@@H](C)[C@@H](O)[C@H](C)[C@@H]1O[C@@H]([C@@H](CC)C(=O)O)CC[C@@H]1C)[C@H]1O[C@]2(C=C[C@@H](NC(=O)NCCCl)[C@]3(CC[C@@](C)([C@H]4CC[C@](O)(CC)[C@H](C)O4)O3)O2)[C@H](C)C[C@@H]1C [FLC-00338-1 Na]	6.45	0.5	6.78	5.73	0.1	8.27	30.4	6.65	0.7	7.21	2.7	0.3	1.9	16.2	10.1 nM	7.23	2.8	7.41	4.2	3.1	pIC50 ([5]; Homo sapiens): 6.21; pIC50 ([9]; Homo sapiens): 7.28
CC[C@@H](C(=O)[C@@H](C)[C@@H](O)[C@H](C)[C@@H]1O[C@@H]([C@@H](CC)C(=O)O)CC[C@@H]1C)[C@H]1O[C@]2(C=C[C@@H](NC(=O)Nc3ccc(F)cc3F)[C@]3(CC[C@@](C)([C@H]4CC[C@](O)(CC)[C@H](C)O4)O3)O2)[C@H](C)C[C@@H]1C [FLC-00359-1]	6.64	0.3	7.14	6.67	0.3	8.79	45.1	7.88	5.6	7.41	1.9	0.5	0.7	65.3	1.12 nM	7.42	1.9	8.02	7.6	3.8	pIC50 ([5]; Homo sapiens): 6.83; pIC50 ([9]; Homo sapiens): 7.71
